For assay [1], the system named is human endothelial cells. As to the kind of experiment: Migration assay (ChemoTx chamber). The format is cell-based. Conditions: for increase in migration: 10^−11 M, four hour incubation, p<0.001; for concentration of peak of migration stimulation: lower and higher concentrations less efficient. The protocol:
Cell motility was measured as described (Martinez et al., J. Natl. Cancer Inst., 21; 94(16):1226-37, 2002). Test peptides were placed at various concentrations at the bottom of a ChemoTx chamber (NeuroProbe Inc.). The intermediate membrane was coated with 10 μg/ml fibronectin, and in the upper chamber 5.0×10^5 human endothelial cells were added. After a four hour incubation at 37° C., the membrane was fixed and stained (Protocol Hema3, Biochemical Sciences Inc.). The cells trapped in the porous membrane were photographed through a 25× microscope objective and the number of cells per photographic field was counted.

The subject of a further assay is nude mice. Put plainly: Directed in vivo Angiogenesis Assay (DIVAA), Example 1. Conditions: for FITC-dextran fluorescence of implants (angiogenesis): mean ± standard deviation of five implants. On the procedure: Silicone tubes (0.15 mm outside diameter, New Age Industries, Southampton, Pa.) are cut to 1 cm in length, and one end of each tube is closed with liquid silicone and dried for 24 hours, then autoclaved. A dilution of test substances is prepared in matrigel in sterile cold Eppendorf tubes. Tubes are filled with a Hamilton syringe. Nude mice are anesthetized, and a pocket is made in the dorsal skin of each animal. The tubes are then implanted with the open end first, and the wounds are then sealed.
After nine to eleven days, the tail veins are injected with FITC-dextran to visualize the blood vessels, and the dye is allowed to distribute throughout the vasculature for about 20 minutes. Mice are then euthanized with CO2 and the skin pockets are removed.
Skin is then dissected, keeping the vessels near the mouth of the tube. The matrigel is then displaced from the tube, incubated at 37° C. in the presence of dispase, then vortexed, centrifuged, and matrigel aliquots are transferred into 96-well plates for fluorescent emission. Fluorescence is read in a fluorimeter.
This example provides a description of use of the Directed in vivo Angiogenesis Assay (DIVAA; see Martinez et al., J. Natl. Cancer Inst. 2002; 94:1226-1237) to measure the angiogenic potential of PAMP in comparison to known angiogenesis factors.
Implants were prepared as follows: Silicone tubes (0.15 mm outside diameter, New Age Industries, Southampton, Pa.) were cut to 1 cm in length. One end of each tube was closed with liquid silicone and dried for 24 hours to allow fumes to diffuse out. Tubes were then autoclaved.
A dilution of test substances was prepared in matrigel in sterile cold Eppendorf tubes. A stock of 25× was prepared to avoid diluting the matrigel too much. Tubes were filled with a Hamilton syringe. All the material was kept sterile and cold. Each tube required 18-20 μl. The matrigel was allowed to solidify at 37° C. for at least 30 minutes.
Nude mice were anesthetized with Ketamine and Xylazine (1:4 ratio), 50 μl per mouse, […]. A pocket was made in the dorsal skin of each animal with scissors. The tubes were implanted with the open end first. The wounds were then sealed with surgical clips. Mice were kept warm until they recovered consciousness. Mice were then maintained for nine to eleven days.
Mice were placed under a heating lamp to dilate their tail veins. Tail veins were injected with 25 mg/ml FITC-dextran (Sigma), 100 μl/mouse. After about 20 minutes, the dye had been distributed. Mice were then euthanized with CO2 and the skin pockets were removed and kept in a PBS-wet cloth.
Skin was then dissected out, keeping the vessels near the mouth of the tube. The tube was placed in an Eppendorf tube containing 300 μdispase (Collaborative Biomedical Products). Then the matrigel was displaced from the tube; these were frozen until they were needed later.
Matrigels were thawed and incubated at 37° C. for one hour, then vortexed, centrifuged, and 100 μl was transferred into a 96-well plate for fluorescent emission (black sides). Excitation for FITC was 485 nm. Emission was 535 nm. Fluorescence was read in a fluorometer.

Assay [2] concerns human microvascular endothelial cells. As to the kind of experiment: Proliferation assay (MTT). In kind it is cell-based. Conditions: three days; for endothelial cell proliferation over the control: 10^−8 M, serum-free medium, p<0.001. On the procedure: The same microvascular endothelial cells were seeded in 96-well plates at a density of 2.0×10^5 cells per well in serum-free medium containing different concentrations of the test peptides. After three days in culture, the number of viable cells per well was estimated by the MTT assay as reported (Iwai et al., Lung Cancer 23, 209-222, 1999). Results are represented as percentage growth over the untreated control.

The subject of assay [3] is Human dermal microvascular endothelial cells. As to the kind of experiment: Calcium measurements (ATP-induced calcium flux). In kind it is cell-based. Conditions: 10 nM PAMP, 1 mM ATP. On the procedure:
Human dermal microvascular endothelial cells were obtained from Cell Applications, Inc. and cultured in 96-well plates at 1.0×10^5 cells per well. The cells were loaded for 60 minutes at room temperature with the fluorescent dye FLIPR (Molecular Devices) and then transferred to the FlexStation II (Molecular Devices) for analysis. The test compounds were prepared in another plate at a concentration of 5× and were added to the proper wells by the robotic arm of the FlexStation II. Fluorescence was measured every five seconds in each well and recorded. One mM ATP (Sigma) was used as a calcium agonist (Lau et al., Life Sci. 73, 20 19-2028, 2003).
On the technique in general: Calcium flux is commonly read through the fluorescence of an indicator in the cells.

The subject of assay [4] is human endothelial cells. Put plainly: Cord formation assay on matrigel. The format is cell-based. Conditions: overnight incubation on matrigel, FIG. 6C. The protocol:
Human endothelial cells were seeded at 2.0×10^5 cells per well over a solid layer of matrigel covering the bottom of a 24-well plate in the presence or absence of the test peptides as described (Nam et al., Phytother. Res. 17, 107-111). After an overnight incubation, the tubular structures were photographed (three pictures per well) and the number of knots per photographic field were counted as a measure of lattice complexity.

Regarding Adrenomedullin [AM], the “effect on cell migration” value in the assay on human endothelial cells [1] (on the concentration range tested) is recorded as “did not modify cell migration significantly”. Besides, the “FITC-dextran fluorescence of implants (angiogenesis)” value (“FITC-dextran fluorescence” for short) with nude mice (10 pM peptide in matrigel) is listed as 1033.2 ± 343 arbitrary fluorescence units; with nude mice (1 nM peptide in matrigel), 9590 ± 3164 arbitrary fluorescence units; with nude mice (100 nM peptide in matrigel), 13490 ± 2731 arbitrary fluorescence units; in the assay with nude mice (1 fM peptide in matrigel), 496 ± 275 arbitrary fluorescence units; with nude mice (100 fM peptide in matrigel) it was 787 ± 130 arbitrary fluorescence units. In addition, the “endothelial cell proliferation over the control” value in assay [2] is on record as “significantly increase proliferation”.
For “proadrenomedullin N-terminal 20 peptide (ARLDVASEFRKKWNKWALSR; listed as Homo sapiens) [PAMP, 20 amino-acid molecule originating from the post-translational processing of pre-proadrenomedullin; synthetic human, purchased from Bachem]”, the increase in migration result in the assay on human endothelial cells [1] was “four-fold”. Besides, in the assay with human endothelial cells [1], the “concentration of peak of migration stimulation” value was 10^−11 M. The “effect on ATP-induced calcium response” value in assay [3] is listed as “greatly reduced”. The “FITC-dextran fluorescence” value is given as 7611.2 ± 3747 arbitrary fluorescence units in the assay with nude mice (10 pM peptide in matrigel); 10122.2 ± 3970 arbitrary fluorescence units with nude mice (1 nM peptide in matrigel); 22283.6 ± 6746 arbitrary fluorescence units with nude mice (100 nM peptide in matrigel); 6837.6 ± 1982 arbitrary fluorescence units in the assay with nude mice (1 fM peptide in matrigel); 7044 ± 1727 arbitrary fluorescence units in the assay with nude mice (100 fM peptide in matrigel). The “angiogenic potency compared with VEGF or AM” value with nude mice (Table 2, FIG. 1, FIG. 2) was “significantly more potent”. Further, in the assay on nude mice (on a molar basis, based on embryonic chick aortic ring assay and DIVAA), the “angiogenic potency relative to VEGF and bFGF” value was “roughly one million”. In the assay on human endothelial cells [4], the “efficiency in inducing cord formation (knots per field)” value is “modest effect”. Also, in assay [2] (at the concentrations tested), the endothelial cell growth result was “did not significantly modify cell growth”.
Turning to “vascular endothelial growth factor [VEGF]”, in the assay with human endothelial cells [1], the increase in migration entry is listed as “four-fold”. Also, the “cell migration at other concentrations” value in the assay with human endothelial cells [1] (concentrations lower than 10^−11 M) is listed as “also induced a significant increase in cell migration”. Also, the “concentration of peak of migration stimulation” value with human endothelial cells [1] is on record as 10^−11 M. The “FITC-dextran fluorescence” value was 863.4 ± 437 arbitrary fluorescence units in the assay with nude mice (10 pM peptide in matrigel); 8435 ± 3931 arbitrary fluorescence units in the assay on nude mice (1 nM peptide in matrigel); 11206 ± 3735 arbitrary fluorescence units in the assay with nude mice (100 nM peptide in matrigel); 1563.2 ± 1643 arbitrary fluorescence units with nude mice (1 fM peptide in matrigel); 571 ± 785 arbitrary fluorescence units in the assay on nude mice (100 fM peptide in matrigel). Also, the “efficiency in inducing cord formation (knots per field)” value in the assay with human endothelial cells [4] is listed as “most efficient”. Also, the “endothelial cell proliferation over the control” value in assay [2] is “significantly increase proliferation”.

Source of the values: patent US7862815B2, “Methods for inhibiting angiogenesis with inhibitors of proadrenomedullin N-terminal 20 peptide (PAMP)” (The United States of America as represented by the …, priority 2002, dated 2011).
